{"source": "patent US10172825B2", "about": "“Pharmacological treatment of cognitive impairment” (priority 2006, dated 2019)", "key": {"[1]": {"conditions": "humans, oral intake of a 80-120 mg dose of ginkgo biloba leaf extract; cited from earlier work"}, "[2]": {"system": "children with Down Syndrome", "conditions": "children with Down Syndrome (Cocchi 1985); cited from earlier work"}, "[3]": {"system": "rats", "conditions": "dose selective for α5-containing GABAA receptors; cited from earlier work"}, "[4]": {"system": "rats", "conditions": "cited from earlier work"}, "[5]": {"system": "Ts65Dn mice", "assay": "Two-object based object recognition task", "format": "in vivo, mouse", "conditions": "for Persistence of cognitive improvement after drug treatment, summary statement: after cessation of chronic treatment; for Object recognition memory, summary statement: chronic administration", "text": "The object recognition task, a behavioral assay not requiring explicit rule learning or prolonged training, is based on the innate tendency of mice to differentially explore novel objects over familiar ones. Animals are submitted to daily handling sessions and are given an opportunity to habituate to a black acrylic, boxed enclosure, where they are exposed to two different objects during a 15-min training session. […] All are generally consistent in height and volume, and are symmetrical on a horizontal plane. They are set in two corners of the apparatus, positioned across from one another along its diameter. Subsequently, a 15-min. testing session is conducted 24 h after training. Here, the mice are presented with the object they had explored the previous day, and a new item (the objects being alternatively positioned in one corner or another in a balanced fashion).\nMemory is operationally defined as the proportion of time animals spend investigating the novel object minus the proportion spent investigating the familiar one (Discrimination Index, DI=[Novel Object Exploration Time/Total Exploration Time−Familiar Object Exploration Time/Total Exploration Time]×100), where exploration constitutes any investigative behavior (i.e., head orientation, sniffing) or deliberate contact (i.e. rearing, licking) that occurs with each object. Behavioral trials are recorded by a tripod-mounted digital camera. Importantly, the object recognition task can be used repeatedly to evaluate rodent memory across time, and across various drug treatment regiments. Mice are trained and tested once per week, each experimental session separated by a 1-week interval, and are serially presented with new sets of objects. In this scheme, each mouse is considered a naïve subject, and each week's performance is considered an independent observation. Finally, all behavioral data are analyzed by Student's unpaired t tests.\nMoreover, learning performance in the test is not confounded by task aversiveness, a variable common in avoidance paradigms, in food-motivated tasks, and in the Morris water maze (MWM). […] Thus, object recognition is an appropriate rodent cognitive task to assess Ts65Dn learning and memory deficits, and the mitigation of these deficits with pharmacological treatment.\nThe present experiment was carried out in a longitudinal, cross-over fashion, submitting four cohorts of WT and Ts65Dn experiment al pairs to a 4-week testing schedule. […] Note that untreated WT and Ts65Dn pairs had been previously run in order to validate the 2-object recognition test. […] N values reflect the number of observations (repetitions) per treatment. DI values are expressed as mean±SEM.\nThe animals were randomly assigned to groups receiving daily servings of chocolate milk or Metrazol (3 mg/kg), and were submitted to two repetitions of object recognition testing. For the purposes of drug delivery, all mice were conditioned to drinking chocolate milk in their home cages and then in cylindrical feeding tubes for 4 days. Subsequent to this conditioning, they were placed daily into the feeding tubes, and presented with small eppendorf caps of milk or a milk-Metrazol cocktail. The milk solutions were typically consumed within 10 min, after which the mice were returned to their home cages. In the current experiment, two cohorts of WT and Ts65Dn mice were submitted to a twoweek testing schedule. […] N values reflect the number of observations (repetitions) per treatment. DI values are expressed as mean±SEM."}, "[6]": {"system": "Ts65Dn hippocampal LTP", "conditions": "application of picrotoxin in vitro (Kleschevnikov 2004); cited from earlier work"}, "[7]": {"system": "Ts65Dn mice", "assay": "Accelerating rotorod test (motor learning)", "format": "in vivo, mouse", "conditions": "chronic PTX treatment (FIG. 12)"}, "[8]": {"system": "hippocampal population spikes", "conditions": "cited from earlier work"}, "[9]": {"conditions": "barbital-induced narcosis; cited from earlier work"}, "[10]": {"system": "rats and mice", "conditions": "acute post-training, peripheral injection or oral intake; cited from earlier work"}, "[11]": {"system": "rats", "conditions": "chronic subcutaneous, approximately 10.0 mg/kg, ~9 months; cited from earlier work"}, "[12]": {"system": "Ts65Dn mice", "assay": "Spontaneous holeboard task", "format": "in vivo, mouse", "text": "One cohort of WT and Ts65Dn mice, used to determine the effects of chronic Metrazol on Ts65Dn object recognition performance, were submitted to a spontaneous holeboard task approximately 1 month after the end of Metrazol treatment and object recognition testing. Here, milk- and drug-treated animals (now 5.0 months of age) were habituated to Med Associates open field activity monitors (27.9 cm×27.9 cm) (FIGS. 7b and 7c), and then evaluated for holeboard exploration during a 7-min session. Please note that 2 rounds of holeboard testing were conducted during the light phase of the light/dark cycle, and were separated by a 1-week interval. […] N values reflect the number of observations (repetitions) per treatment. Values are expressed as mean±SEM."}, "[13]": {"conditions": "cited from earlier work"}, "[14]": {"conditions": "cited from earlier work", "remark": "listed apart in the source"}, "[15]": {"system": "Ts65Dn mice", "assay": "Hippocampal LTP after chronic drug administration", "format": "in vivo, mouse", "conditions": "after chronic once a day administration", "text": "It is shown that chronic (but not acute) once a day drug administration in Ts65Dn mice was able to normalize cognitive performance in the novel object recognition and spontaneous alteration tasks, and to rescue hippocampal LTP (see also Fernandez et al. (2007) Nat. Neurosci. 10, 411-413, herein specifically incorporated by reference)."}}, "note": "Entries after “also recorded” stand apart in the source; their conditions may differ. Read-outs that look alike come from different tables or passages of the source."}
{"molecule": "CC1C(=O)OC2C(O)C34C5CC(C(C)(C)C)C36C(OC(=O)C6O)OC4(C(=O)O5)C12O", "note": "(stereo not drawn) [Ginkgolide B, ginkgolide B]", "values": [{"measurement": "Bioavailability", "setting": "[1]", "value": "at least 80%"}, {"measurement": "Half-life", "setting": "[1]", "value": 6, "unit": "h"}]}
{"molecule": "CN1C(=O)CN=C(c2ccccc2)c2cc(Cl)ccc21", "note": "[diazepam]", "values": [{"measurement": "Depression", "setting": "[2]", "value": "reducing depression"}]}
{"molecule": "CCOC(=O)c1ncn2c1[C@@H]1CCCN1C(=O)c1cc(OC)ccc1-2", "note": "[L-655,708]", "values": [{"measurement": "Pro-convulsant effect", "setting": "[3]", "value": "not pro-convulsant"}, {"measurement": "Cognition", "setting": "[4]", "value": "enhance cognition in rats"}]}
{"molecule": "Picrotoxin [PTX]", "values": [{"measurement": "Time normal object recognition memory is maintained post-treatment", "setting": "[5]; PTX-treated Ts65Dn mice after cessation of chronic treatment", "value": "at least 2 weeks"}, {"measurement": "Object recognition performance", "setting": "[5]; Ts65Dn mice, acute PTX (FIG. 11)", "value": "Unable to Reliably Rescue Ts65Dn Performance"}, {"measurement": "Persistence of cognitive improvement after drug treatment, summary statement", "setting": "[5]; Ts65Dn mice", "value": "maintained post drug treatment"}, {"measurement": "Object recognition memory, summary statement", "setting": "[5]; Ts65Dn mice", "value": "able to recover Ts65Dn declarative memory"}, {"measurement": "Object recognition memory, summary statement", "setting": "[5]; Ts65Dn mice, listed as Picrotoxin", "value": "normalizes object recognition memory in Ts65Dn mice"}, {"measurement": "Object recognition memory, summary statement", "setting": "[5]; Ts65Dn mice, listed as picrotoxin", "value": "normalizes learning of Ts65Dn mice in an object recognition task"}, {"measurement": "Deficits in Ts65Dn hippocampal LTP", "setting": "[6]", "value": "shown to reverse"}, {"measurement": "Rotorod performance / motor learning", "setting": "[7]", "value": "does not influence Ts65Dn motor learning; also recorded: does not influence Ts65Dn Rotorod Performance"}]}
{"molecule": "CC(C)(C)[C@]1(O)C[C@@H]2OC(=O)C[C@@]23C(=O)O[C@@H]2OC(=O)[C@H](O)[C@]213", "note": "[bilobalide, Bilobalide]", "values": [{"measurement": "Bioavailability", "setting": "[1]", "value": 70, "unit": "%"}, {"measurement": "Half-life", "setting": "[1]", "value": 3, "unit": "h"}, {"measurement": "Paired pulse inhibition", "setting": "[8]", "value": "decrease paired pulse inhibition"}, {"measurement": "Amplitude of hippocampal population spikes", "setting": "[8]; muscimol-dependent manner", "value": "significantly increase the amplitude of hippocampal population spikes"}, {"measurement": "Discrimination Index (DI), object recognition memory", "setting": "[5]; Ts65Dn mice, 30 daily i.p. injections through the 4-week testing schedule", "value": "resembled Ts65Dn mice receiving PTX"}, {"measurement": "Object recognition memory, summary statement", "setting": "[5]; Ts65Dn mice", "value": "restore Ts65Dn object recognition performance"}, {"measurement": "Sleeping time", "setting": "[9]", "value": "shorten sleeping time"}]}
{"molecule": "C1CCc2nnnn2CC1", "note": "[Metrazol, pentamethylenetetrazol]", "values": [{"measurement": "Learning and memory", "setting": "[10]", "value": "facilitate normal learning and memory in rats and mice"}, {"measurement": "Reversal learning in a shock-motivated, spatial maze task", "setting": "[11]", "value": "elevates reversal learning"}, {"measurement": "Signs of neuronal aging in the hippocampus", "setting": "[11]", "value": "curtails signs of neuronal aging in the hippocampus"}, {"measurement": "Persistence of cognitive improvement after drug treatment, summary statement", "setting": "[5]; Ts65Dn mice", "value": "found to have longevity in its effects for weeks after treatment"}, {"measurement": "Persistence of cognitive improvement after drug treatment, summary statement", "setting": "[5]; Ts65Dn mice, listed as PTZ", "value": "persistent, post-drug recovery of Ts65Dn cognition"}, {"measurement": "Object recognition memory, summary statement", "setting": "[5]; Ts65Dn mice", "value": "restore Ts65Dn object recognition performance"}, {"measurement": "Discrimination Index (DI), object recognition memory", "setting": "[5]; Ts65Dn mice, daily oral Metrazol 3 mg/kg in milk, compared with Ts65Dn mice given milk alone (p<0.03)", "value": "significantly higher than Ts65Dn mice administered milk alone"}, {"measurement": "Discrimination Index (DI), object recognition memory", "setting": "[5]; Ts65Dn mice, daily oral Metrazol 3 mg/kg in milk, two weeks, compared with WT mice given milk (p<0.16) or Metrazol (p<0.47)", "value": "DI scores on par with those of WT mice given milk"}, {"measurement": "Holeboard exploration efficiency (head-dips into previously explored holes)", "setting": "[12]; Ts65Dn mice about 1 month after end of Metrazol treatment, compared with WT-milk (p>0.07) and WT-Metrazol (p<0.31)", "value": "showed similar exploration efficiency"}, {"measurement": "Holeboard exploration efficiency, summary statement", "setting": "[12]; Ts65Dn mice after GABA antagonist treatment with Metrazol", "value": "rescued and persevere in Ts65Dn mice"}, {"measurement": "Distribution between brain regions", "setting": "[13]; after intraperitoneal injection, cerebellum, midbrain, cortex", "value": "allocated evenly between the 3 major brain divisions"}, {"measurement": "Time to maximum physiological levels", "setting": "[13]; after oral intake or systemic injection", "value": "5-10 min"}, {"measurement": "Blood-brain barrier passage", "setting": "[13]; in vivo", "value": "readily crosses the blood-brain barrier"}, {"measurement": "Half-life", "setting": "[13]; in vivo", "value": "1 to 2", "unit": "h"}, {"measurement": "Volume of distribution", "setting": "[13]; in vivo", "value": "approximates the volume of total body water"}, {"measurement": "Adverse or toxic effects", "setting": "[14]; humans, dose range of less than about 100-400 mg/day", "value": "little to no adverse or toxic effects"}, {"measurement": "Electrocardiographic tracings", "setting": "[14]; patients on Metrazol", "value": "no abnormalities in their electrocardiographic tracings"}, {"measurement": "Temperature curves, respiration, blood sugar, icteric index, pulse rate", "setting": "[14]; patients on Metrazol", "value": "no changes in temperature curves, respiration, blood sugar, icteric index or pulse rate"}, {"measurement": "Post-drug recovery of hippocampal LTP", "setting": "[15]", "value": "post-drug recovery of Ts65Dn cognition and LTP lasting for several months"}]}
